Legend:
BT-474 [1] = conditions: 72 h
Summary of the method: (§1)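 Plates of 384 wells holding compound in 5 µl medium received breast cancer cell lines in 20 µl suspension and were incubated 72 h. CellTiter-Blue (2.5 µl, 2 h, 37 °C) was used for viability, read at 560/590 nm, and every plate was normalised to vehicle and a positive kill control and assessed by Z'-factor. The EC50 derives from a percent-inhibition dose-response curve fit censored at the highest concentration, leaving out rows whose drug sensitivity score was zero.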

SK-BR-3 [2] = conditions: 72 h
Summary of the method: as §1

MDA-MB-468 [3] = conditions: 72 h
Summary of the method: as §1

HDQ-P1 = conditions: 72 h
Summary of the method: as §1

CAL-85-1 [4] = conditions: 72 h
Summary of the method: as §1

MDA-MB-453 [5] = conditions: 72 h
Summary of the method: as §1

BT-474 [6] = conditions: 72 h; remark: listed apart in the source
Summary of the method: (§2)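 EC50 was fitted from dose-response curves and censored at the highest concentration tested. To build those curves, breast cancer cell lines (20 µl suspension) were seeded into 384-well plates containing compound at 5 concentrations in 10-fold steps over a compound-specific 10,000-fold range and incubated for 72 h. Readouts were CellTox Green fluorescence (485/520 nm) for cell death and then CellTiter-Glo luminescence for viability, with each plate normalised to 0.1 % DMSO and a positive kill control.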

Hs578T [7] = conditions: 72 h
Summary of the method: as §2

CAL-85-1 [8] = conditions: 72 h; remark: listed apart in the source
Summary of the method: as §2

SK-BR-3 [9] = conditions: 72 h; remark: listed apart in the source
Summary of the method: as §2

CAL-51 [10] = conditions: 72 h
Summary of the method: as §2

MDA-MB-436 [11] = conditions: 72 h
Summary of the method: as §2

MDA-MB-231 [12] = conditions: 72 h
Summary of the method: as §2

HCC1937 [13] = conditions: 72 h
Summary of the method: as §2

MDA-MB-453 [14] = assay: drug sensitivity score (DSS), CellTox Green (DSS (AUC-based score)); higher = stronger drug effect (viability inhibition or cytotoxicity); extreme values may be limits of the assay; conditions: incubation time: 72 h
Summary of the method: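 Breast cancer cell lines were seeded in 20 µl suspension into 384-well plates already holding compound and incubated for 72 h. Each compound was tested at 5 concentrations in 10-fold steps across its own 10,000-fold range. Plates were normalised to 0.1 % DMSO and a positive kill control after CellTox Green and then CellTiter-Glo readings. The area under the fitted dose-response curve served as the basis for the drug sensitivity score.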

Hs578T [15] = conditions: 72 h; remark: listed apart in the source
Protocol: (§3)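 Drug sensitivity and resistance testing (DSRT) of breast cancer cell lines in 384-well plates, 5 concentrations in 10-fold dilutions over a compound-specific 10,000-fold range. After 72 h, cytotoxicity was read by CellTox Green fluorescence and viability by CellTiter-Glo luminescence (multiplexed), normalised to DMSO and benzethonium chloride controls. EC50 is the inflection point of the fitted dose-response curve (bottom asymptote free, so it can be relative for partial curves) and is censored at the highest tested concentration. Rows with DSS 0 (no meaningful response) were excluded.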

MDA-MB-231 [16] = conditions: 72 h; remark: listed apart in the source
Protocol: as §3

MDA-MB-468 [17] = conditions: 72 h; remark: listed apart in the source
Protocol: as §3

CAL-120 [18] = conditions: 72 h
Summary of the method: as §1

HCC1143 = conditions: 72 h
Summary of the method: as §1

HCC1937 [19] = conditions: 72 h; remark: listed apart in the source
Summary of the method: as §1

MDA-MB-436 [20] = conditions: 72 h; remark: listed apart in the source
Summary of the method: as §1

MFM-223 = conditions: 72 h
Summary of the method: as §1

CAL-51 [21] = conditions: 72 h; remark: listed apart in the source
Summary of the method: as §1

CAL-148 = conditions: 72 h
Summary of the method: as §1

CAL-120 [22] = conditions: 72 h; remark: listed apart in the source
Summary of the method: as §2

BT-549 = conditions: 72 h
Summary of the method: as §1

Q: With `C=CC(=O)N1CCC[C@@H](n2nc(-c3ccc(Oc4ccccc4)cc3)c3c(N)ncnc32)C1` as the compound, how does the “EC50, CellTiter-Blue viability” value (BT-474 [1]) read?
A: 14.7 nM

Q: And the “EC50, CellTiter-Blue viability” value (SK-BR-3 [2])?
A: 8.82 nM

Q: And the “EC50, CellTiter-Blue viability” value (MDA-MB-468 [3])?
A: 71.1 nM

Q: What about the “EC50, CellTiter-Blue viability” value (HDQ-P1) of the same compound?
A: 407 nM

Q: What about the “EC50, CellTiter-Blue viability” value (CAL-85-1 [4]) of the same compound?
A: 849 nM

Q: And the “EC50, CellTiter-Blue viability” value (MDA-MB-453 [5])?
A: 0.0185 µM

Q: How did the “EC50, CellTiter-Glo” value (BT-474 [6]) turn out when `Nc1nc2[nH]cc(CCc3ccc(C(=O)N[C@@H](CCC(=O)O)C(=O)O)cc3)c2c(=O)[nH]1` [Pemetrexed] was run?
A: 408 nM

Q: What about the “EC50, CellTiter-Glo” value (Hs578T [7]) of the same compound?
A: 47.4 nM

Q: What about the “EC50, CellTiter-Glo” value (CAL-85-1 [8]) of the same compound?
A: 41.1 nM

Q: What about the “EC50, CellTiter-Glo” value (SK-BR-3 [9]) of the same compound?
A: 23.1 nM

Q: What about the “EC50, CellTiter-Glo” value (CAL-51 [10]) of the same compound?
A: 2.23 nM

Q: And the “EC50, CellTiter-Glo” value (MDA-MB-436 [11])?
A: 30.3 nM

Q: What about the “EC50, CellTiter-Glo” value (MDA-MB-231 [12]) of the same compound?
A: 652 nM

Q: And the “EC50, CellTiter-Glo” value (HCC1937 [13])?
A: 64.1 nM

Q: And the drug sensitivity score (MDA-MB-453 [14])?
A: 0

Q: And the “EC50, CellTox Green” value (Hs578T [15])?
A: 9.35 µM

Q: What about the “EC50, CellTox Green” value (MDA-MB-231 [16]) of the same compound?
A: 2830 nM

Q: What about the “EC50, CellTox Green” value (MDA-MB-468 [17]) of the same compound?
A: 8.62 µM

Q: What about the “EC50, CellTiter-Blue viability” value (CAL-120 [18]) of the same compound?
A: > 10 µM

Q: What about the “EC50, CellTiter-Blue viability” value (HCC1143) of the same compound?
A: > 10 µM

Q: And the “EC50, CellTiter-Blue viability” value (SK-BR-3 [2])?
A: 116 nM

Q: And the “EC50, CellTiter-Blue viability” value (CAL-85-1 [4])?
A: 878 nM

Q: What does the source list for `Oc1ncc(N(CCCl)CCCl)c(O)n1` [Uracil mustard]?
A: drug sensitivity score (MDA-MB-453 [14]): 0; EC50, CellTiter-Blue viability (HCC1937 [19]): 962 nM

Q: Which results are given for `Cc1ccc(-c2cc(C(F)(F)F)nn2-c2ccc(S(N)(=O)=O)cc2)cc1` [Celecoxib]?
A: drug sensitivity score (MDA-MB-453 [14]): 0; EC50, CellTiter-Blue viability (MDA-MB-436 [20]): 183 nM; EC50, CellTiter-Blue viability (HCC1937 [19]): 329 nM; EC50, CellTiter-Blue viability (HDQ-P1): 67.5 nM; EC50, CellTiter-Blue viability (MDA-MB-453 [5]): 7.69 µM

Q: How did the drug sensitivity score (MDA-MB-453 [14]) turn out when `O=C(O)C1(C(=O)O)CCC1.[NH2-].[NH2-].[Pt+2]` [Carboplatin] was run?
A: 0

Q: What about the “EC50, CellTiter-Blue viability” value (MFM-223) of the same compound?
A: 9.69 µM

Q: What about the “EC50, CellTiter-Blue viability” value (CAL-51 [21]) of the same compound?
A: 9.46 µM

Q: And the “EC50, CellTiter-Blue viability” value (CAL-148)?
A: 5.15 µM

Q: And the “EC50, CellTiter-Blue viability” value (MDA-MB-453 [5])?
A: 7.35 µM

Q: For `C[C@H]1C[C@@H]2[C@H]([C@@H](O)C[C@@]3(C)[C@H]2CC[C@]3(O)C(=O)CO)[C@@]2(C)C=CC(=O)C=C12` [Methylprednisolone], which “EC50, CellTiter-Glo” value (CAL-120 [22]) is on record?
A: 23.5 nM

Q: And the drug sensitivity score (MDA-MB-453 [14])?
A: 0

Q: And the “EC50, CellTiter-Blue viability” value (BT-549)?
A: 520 nM

Q: What about the “EC50, CellTiter-Blue viability” value (MDA-MB-453 [5]) of the same compound?
A: 0.0277 µM

— the supplement of paper PMC4862054
